Experimental data taken from patent US9487752B2, “Priming of pluripotent stem cells for neural differentiation” (Cellular Dynamics International, Inc., priority 2011, dated 2016).

B1: FGF8: fibroblast growth factor 8, reported as an endogenous neural inducer (protein, UniProt P55075 23-233, looked up)
Fibroblast growth factor 8: QEGPGRGPALGRELASLFRAGREPQGVSQQHVREQSLVTDQLSRRLIRTYQLYSRTSGKHVQVLANKRINAMAEDGDPFAKLIVETDTFGSRVRVRGAETGLYICMNKKGKLIAKSNGKGKDCVFTEIVLENNYTALQNAKYEGWYMAFTRKGRPRKGSKTRQHQREVHFMKRLPRGHHTTEQSLRFEFLNYPPFTRSLRGSQRTWAPEPR

Experiments:
Assay type in all cases: cell-based
[1] = system: iPSC line (2.042); assay: Neural differentiation of iPSC line 2.042, neuron purity by βIII-tubulin/Nestin double stains; settings: only one of 10 μM SB-431542 or 1 μM dorsomorphin in medium on Days −2, −1, 0 and 1; Day 28 (FIG. 3C)
[2] = system: iPS cell line 8004; assay: Neuron purity of iPS cell line 8004 by TUJ1/Nestin flow cytometry staining; settings: 10 μM SB-431542 on Days −2, −1, 0, and 1; Day 28
Procedure: (§1) iPS cell line 8004 was differentiated using the procedure of Example 3 with and without 10 μM SB-431542 added to culture medium on Days −2, −1, 0, and 1. On Day 28, neuron purity as determined by TUJ1/Nestin flow cytometry staining was 80% without SB-431542 and 97% with SB-431542. Beginning on Day 30 of the. procedure, cells were fed 90% 1× DMEM-F12/10% FBS every 7 days. Astrocyte outgrowth was first detected on Day 45. On Day 48, cultures were assayed by flow cytometry for astrocyte purity using GFAP as a marker for astrocytes. […] In summary, the methods detailed herein provide for a method to produce cultures of high purity astrocytes in a time efficient manner relative to existing astrocyte differentiation methods.

[3] = system: iPS cell line 8004; assay: Astrocyte purity of iPS cell line 8004 cultures by flow cytometry using GFAP as marker; settings: 10 μM SB-431542 on Days −2, −1, 0, and 1; fed 10% FBS from Day 30; Day 48
Procedure: as §1

[4] = system: iPSC line 1729c4; assay: Neural differentiation of iPSC line 1729c4, purity by flow cytometry with βIII-tubulin/Nestin double stains; settings: 10 ng/mL FGF8 present on Day −3; Day 27
Description: iPS cells were maintained on Matrigel in TeSR medium (Stem Cell Technologies) and sodium citrate split one passage prior to aggregate formation and grown in T150 flasks, but can be scaled for starting cells in other culture formats. Alternate pluripotent cell culture media (such as E8 media: Chen et al., 2011), containing varying concentrations of TGFβ and/or bFGF, can be used to optimize neural differentiation of different iPS cell lines or clones. Pluripotent cell cultures were then “primed” for differentiation three or four days prior to aggregate formation. […]
On Day 0 of the neuron differentiation process (specifically, aggregate formation), cells are harvested from T150 flasks (up to five flasks at one time) and, after media is aspirated, 12 mL of warm TrypLE is added to each flask and the cells are incubated at 37° C. for 7 minutes. […] The tubes may be combined and cells are counted (CEDEX HiRES cell counter). […] Diluted cell stock is counted (CEDEX HiRES cell counter). […]

| Molecule | neuron purity by βIII-tubulin/Nestin double stains compared to both inhibitors [1] | neuron purity by TUJ1/Nestin flow cytometry staining [2] | GFAP positive cells (astrocyte purity) [3] | βIII-tubulin/Nestin positive cells [4] |
| --- | --- | --- | --- | --- |
| NC(=O)c1ccc(-c2nc(-c3ccc4c(c3)OCO4)c(-c3ccccn3)[nH]2)cc1 [SB-431542] | similarly high neuron purities | 97% | 56% |  |
| B1 |  |  |  | 90% |
